Reference: ChEMBL document CHEMBL5036377, “Improved Metabolically Stable 5-HT Receptor Modulators and the Development of New Antidepressants” (ACS Med Chem Lett, 2022)

How the values were obtained:
[1] = Stability in rat brain homogenate assessed as compound remaining measured after 120 mins; type: ADME, tissue-based; details: read-out: Stability
[2] = Stability in human liver mitochondria assessed as compound remaining in presence of MAO-A and MAO-B measured after 60 mins; type: ADME; details: read-out: Stability
[3] = Stability in rat brain homogenate assessed as half life; type: ADME, tissue-based

Work on CN(C)CCc1c[nH]c2ccccc12 yielded a remaining at 2 h [1] of 0%, a remaining at 1 h [2] of 8.9% and a half-life [3] of 0.085 h.

With COc1ccc2[nH]cc(CCN3CCC3)c2c1 the remaining at 2 h [1] was 98%, the remaining at 1 h [2] was 106% and the half-life [3] was greater than 4.82 h.

Oc1cccc2[nH]cc(CCN3CCC3)c12 showed a remaining at 2 h [1] of 56.8%, a remaining at 1 h [2] of 88.2% and a half-life [3] of 2.91 h.

In the case of c1ccc2c(CCN3CCC3)c[nH]c2c1, the remaining at 2 h [1] is reported as 91.9%, the remaining at 1 h [2] is reported as 85.2% and the half-life [3] is reported as greater than 4.82 h.

COc1ccc2[nH]cc(CCN(C)C)c2c1 [MEBUFOTENIN] gave a remaining at 2 h [1] of 0.3%, a remaining at 1 h [2] of 47.1% and a half-life [3] of 0.24 h.

With CN(C)CCc1c[nH]c2cccc(O)c12 [PSILOCIN] the remaining at 2 h [1] was 46.1%, the remaining at 1 h [2] was 112% and the half-life [3] was 1.91 h.
